Experimental data: patent publication US7998986B2, “Modulators of LXR” (Exelixis Patent Company LLC, priority 2001, dated 2011)

How the values were obtained:
LXRβ [1] = target: T1, LXRβ (Homo sapiens, UniProt P55055); experiment: LXR/LXRE co-transfection assay (luciferase reporter, CV-1 cells); assay type: cell-based; design: expressed in transfected cells; host or cells: CV-1 African Green Monkey Kidney Cells; conditions: for EC50: CV-1 cells, agonism; for LXRβ/LXRE Eff: efficacy relative to control N-(3-((4-fluorophenyl)-(naphthalene-2-sulfonyl)-amino)propyl)-2,2-dimethylpropionamide
T1 sequence (P55055 1-460): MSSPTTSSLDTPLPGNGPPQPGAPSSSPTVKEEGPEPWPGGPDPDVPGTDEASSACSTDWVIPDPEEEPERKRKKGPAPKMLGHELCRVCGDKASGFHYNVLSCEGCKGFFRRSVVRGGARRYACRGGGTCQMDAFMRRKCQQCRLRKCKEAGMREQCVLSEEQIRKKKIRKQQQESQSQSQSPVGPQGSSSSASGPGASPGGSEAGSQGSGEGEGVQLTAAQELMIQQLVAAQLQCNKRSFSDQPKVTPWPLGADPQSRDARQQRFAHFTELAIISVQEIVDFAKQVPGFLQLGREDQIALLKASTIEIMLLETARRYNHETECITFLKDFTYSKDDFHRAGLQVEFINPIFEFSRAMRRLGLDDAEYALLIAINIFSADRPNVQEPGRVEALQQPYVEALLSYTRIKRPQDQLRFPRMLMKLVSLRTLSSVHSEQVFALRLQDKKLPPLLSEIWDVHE
T1 sequence (P19793 1-462 partner): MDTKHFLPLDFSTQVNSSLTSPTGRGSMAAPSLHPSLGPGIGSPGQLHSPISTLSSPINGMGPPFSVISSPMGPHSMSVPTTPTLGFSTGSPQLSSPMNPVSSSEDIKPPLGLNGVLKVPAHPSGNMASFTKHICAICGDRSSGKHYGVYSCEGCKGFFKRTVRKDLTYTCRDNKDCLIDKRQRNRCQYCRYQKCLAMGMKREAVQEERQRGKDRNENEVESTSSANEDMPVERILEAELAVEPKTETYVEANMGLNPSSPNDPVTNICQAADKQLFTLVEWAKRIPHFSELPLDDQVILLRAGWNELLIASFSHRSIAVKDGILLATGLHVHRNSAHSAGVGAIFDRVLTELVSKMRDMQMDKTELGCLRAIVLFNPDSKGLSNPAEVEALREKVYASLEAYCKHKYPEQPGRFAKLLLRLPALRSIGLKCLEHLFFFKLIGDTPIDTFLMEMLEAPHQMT
Excerpt: (§1) To measure the ability of compounds to activate or inhibit the transcriptional activity of LXR, in a cell based assay, the cotransfection assay may be used. It has been shown that LXR functions as a heterodimer with RXR. For the co-transfection assay, expression plasmids for LXR and RXR are introduced via transient transfection into mammalian cells along with a luciferase reporter plasmid that contains one copy of a DNA sequence that is bound by LXR-RXR heterodimers (LXRE; Willy, P. et al. 1995). Treatment of transfected cells with an LXR agonist increases the transcriptional activity of LXR, which is measured by an increase in luciferase activity.
(§2) A. Required Materials • 1. CV-1 African Green Monkey Kidney Cells • 2. Co-transfection Expression plasmids, CMX-hLXR, or CMX-hLXR, CMX-RXR, reporter (LXREx1-Tk-Luciferase), and control (CMX-Galactosidase expression vector). • 3. Transfection reagent such as FuGENE6 (Roche). • 4. 1× Cell lysis buffer (1% Triton X 100 (JT Baker X200-07), 10% Glycerol (JT Baker M778-07), 5 mM Ditriotreitol (Quantum Bioprobe DTT03; add fresh before lysing), 1 mM EGTA (Ethylene Glycol-bis (B-Amino ethyl ether)-N,N,N′,N′-Tetracetic Acid) (Sigma E-4378), 25 mM Tricine (ICN 807420) pH 7.8 • 5. 1× Luciferase assay buffer (pH at 7.8) (0.73 mM ATP, 22.3 mM Tricine, 0.11 mM EDTA 33.3 mM DTT) • 6. 1× Luciferrin/CoA (11 mM Luciferin, 3.05 mM Coenzyme A, 10 mM HEPES
(§3) B. Preparation of Screening Reagents • 1. CV-1 cells are prepared 24 hours prior to the experiment by plating them into T-175 flasks or 500 cm^2 dishes in order to achieve 70-80% confluency on the day of the transfection. The number of cells to be transfected is determined by the number of plates to be screened. Each 384 well plate requires 1.92×10^6 cells or 5000 cells per well. • 2. DNA Transfection Reagent is prepared by mixing the required plasmid DNAs with a cationic lipid transfection reagent such as DOTAP or FuGENE6 by following the instructions provided with the reagents. Optimal DNA amounts need to be determined empirically per cell line and size of vessel to be transfected. • 3. Add 10-12 mls media to the DNA Transfection Reagent and add this mixture to the cells after aspirating media from a T175 cm^2 flask. • 4. Incubate at least 5 hours at 37 degrees to prepare screening cells. • 5. Luciferase assay reagent is prepared by combining before use (per • 10 ml): • 10 ml 1× Luciferase assay buffer • 0.54 mls of 1× Luciferrin/CoA • 0.54 mls of 0.2 M Magnesium sulfate
(§4) 1. C. Procedure • 1. Prepare assay plates by dispensing 0.5 ul of 1 mM compound per well of a 384 well plate to achieve final compound concentration of 10 uM and 1% DMSO. • 2. Remove media from the screening cells, trypsinize, harvest cells by centrifugation, count the cells, and plate at 5000 cells per well in the 384 well assay plate prepared above in a volume of about 45 ul. • 3. Incubate assay plates containing both compounds and screening cells for 20 hours at 37 C. degrees. • 4. Carefully aspirate media from cells and ensure that cells are not lifted off. • 5. Add lysis buffer (30 ul/well) and incubate at least 30 minutes room temp. • 6. Add luciferase assay buffer (30 ul/well) and read assay plates on luminometer (PE Biosystems Northstar reader with on-board injectors, or equivalent). • 7. Read plates immediately after addition of luciferase assay reagent.
(§5) The LXR/LXRE co-transfection assay can be used to establish the EC50/IC50 values for potency and percent activity or inhibition for efficacy. Efficacy defines the activity of a compound relative to a high control ((N-(3-((4-fluorophenyl)-(naphthalene-2-sulfonyl)-amino)propyl)-2,2-dimethylpropionamide)) or a low control (DMSO/vehicle). The dose response curves are generated from an 8 point curve with concentrations differing by ½ LOG units. Each point represents the average of 4 wells of data from a 384 well plate. The curve for the data is generated by using the equation: Y=Bottom+(Top-Bottom)/(1+10^((LogEC50-X)*HillSlope)) […]

LXRα [2] = target: T2, LXRα (Homo sapiens, UniProt Q13133); experiment: as above; assay type: cell-based; design: expressed in transfected cells; host or cells: CV-1 African Green Monkey Kidney Cells; conditions: for EC50: CV-1 cells, agonism; for LXRα/LXRE Eff: efficacy relative to control N-(3-((4-fluorophenyl)-(naphthalene-2-sulfonyl)-amino)propyl)-2,2-dimethylpropionamide
T2 sequence (Q13133 1-447): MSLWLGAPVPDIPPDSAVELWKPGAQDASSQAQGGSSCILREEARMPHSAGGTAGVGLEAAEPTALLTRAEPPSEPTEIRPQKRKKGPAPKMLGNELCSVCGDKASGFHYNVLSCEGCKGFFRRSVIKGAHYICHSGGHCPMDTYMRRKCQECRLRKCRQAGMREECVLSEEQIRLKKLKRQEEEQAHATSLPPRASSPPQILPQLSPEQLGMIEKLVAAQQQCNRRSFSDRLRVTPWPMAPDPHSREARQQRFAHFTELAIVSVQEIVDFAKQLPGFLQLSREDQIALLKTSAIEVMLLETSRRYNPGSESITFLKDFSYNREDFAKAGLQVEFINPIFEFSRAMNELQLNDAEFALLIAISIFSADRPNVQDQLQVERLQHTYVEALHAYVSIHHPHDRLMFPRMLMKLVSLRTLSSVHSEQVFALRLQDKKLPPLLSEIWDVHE
T2 sequence (P19793 1-462 partner): T1 sequence (P19793 1-462 partner)
Excerpt: as §1, §2, §3, §4, §5

LXRβ [3] = target: T1, LXRβ; experiment: Scintillation proximity assay (SPA), displacement of 3H-24,25-epoxycholesterol; design: made in house; conditions: scintillation proximity binding assay; average of at least two dose response experiments; read-out: Ki(β)
Description: (§6) The SPA assay measures the radioactive signal generated by the binding of ^3H-24, 25-epoxycholesterol to LXRα or LXRβ. The basis of the assay is the use of SPA beads containing a scintillant, such that when binding to the receptor brings the labeled ligand into proximity with the bead, the energy from the label stimulates the scintillant to emit light. The light is measured using a standard microplate scintillation reader. The ability of a ligand to bind to a receptor can be measured by assessing the degree to which the compound can compete off a radiolabelled ligand with known affinity for the receptor.
(§7) A. Required Materials • 1. Label: ^3H-24, 25-epoxy-cholesterol (Amersham) • 2. LXRα lysate: Baculovirus expressed LXRα/RXR heterodimer with RXR having a 6-HIS tag produced as a crude lysate • 3. LXRβ lysate: Baculovirus expressed LXRβ/RXR heterodimer with RXR having a 6-HIS tag produced as a crude lysate • 4. SPA beads: Ysi copper His-tag SPA beads (Amersham) • 5. Plates: Non-binding surface 96-well plate (Corning) • 6. Protein lysate dilution buffer: (20 mM Tris-HCl pH 7.9, 500 mM NaCl, 5 mM Imidazole). • 7. 2×SPA Buffer: (40 mM K2HPO4/KH2PO4 pH7.3, 100 mM NaCl, 0.05% Tween 20, 20% Glycerol, 4mM EDTA) • 8. 2×SPA Buffer w/o EDTA: (40 mM K2HPO4/KH2PO4 pH7.3, 100 mM NaCl, 0.05% Tween 20, 20% Glycerol)
(§8) B. Preparation of Screening Reagents • 1. [^3H]24,25 Epoxycholesterol (EC) solution. For a single 384-well plate (or 400 wells), add 21 μl [^3H] EC (specific activity 76.5Ci/mmol, concentration 3.2mCi/ml) in 4.4 ml of 2×SPA buffer to a final concentration of 200nM. For each additional 384-well plate, add 19.1 μl additional [^3H] EC and 4.0 ml additional 2×SPA buffer. The final concentration of [^3H] EC in the well will be 50 nM. • 2. Dilute LXRα lysate with protein lysate dilution buffer. Make 1400 μl of diluted LXRα lysate for a 384-well plate, (or 200 wells) and 1120 μl of diluted LXRα lysate for each additional 384-well plate. • 3. Diluted LXRβ lysate with protein lysate dilution buffer. Make 1400 μl of diluted LXRβ lysate for 1 a 384-well plate, (or 200 wells) and 1120 μl of diluted LXRβ lysate for each additional 384-well plate. • 4. SPA bead solution. For 1 a 384-well plate (or 400 wells), mix 3.75 ml of 2× SPA buffer w/o EDTA, 2.25 ml of H2O, and 1.5 ml of Ysi His-tag SPA beads (Vortex well before taking). For each addition 384-well plate, mix additional 3.5 ml of 2×SPA buffer w/o EDTA, 2.1 ml of H2O, and 1.4 ml of Ysi His-tag SPA beads to the SPA bead solution.
(§9) C. Procedure: • 1. Prepare appropriate dilutions of each compound and pipette into the appropriate wells of a multiwell plate. • 2. Add 9.1 μl of [^3H] EC to each well of column 2-23 of the multiwell plate. • 3. Add 5 μl of diluted LXRα lysate to each well of column 2-23 on odd rows of the multiwell plate. • Add 5 μl of diluted LXRβ lysate to each well of column 2-23 on even rows of the multiwell plate. • 4. Add 17.5 μl of SPA bead solution to each well of column 2-23 of the multiwell plate. • 5. Cover the plates with clear sealer. Place the plates in the MicroBeta. Incubate at room temperature for 1 hr. • 6. Count using program n ABASE 3H—384DPM. The setting for n ABASE 3H—384DPM is:
(§10) Assays for LXRα and LXRβ were performed in the identical manner. The determined Ki represents the average of at least two independent dose response experiments. The binding affinity for each compound may be determined by non-linear regression analysis using the one site competition formula to determine the IC50 where:
(§11) [formula] The Ki is than calculated using the Cheng and Prusoff equation where:
(§12) [formula] Ligand=50 nM EC and Kd=200 nM as determined by saturation binding

LXRα [4] = target: T2, LXRα; experiment: as above; design: made in house; conditions: scintillation proximity binding assay; average of at least two dose response experiments; read-out: Ki(α)
Description: as §6, §7, §8, §9, §10, §11, §12

Q: Which EC50 (LXRβ [1]) does the source give for `Cc1ccc(Cn2c(-c3ccccc3)cc(C(F)(F)F)c(C#N)c2=O)o1` [1-(5-Methyl-furan-2-ylmethyl)-2-oxo-6-phenyl-4-trifluoromethyl-1,2-dihydro-pyridine-3-carbonitrile] here?
A: 810 nM

Q: And the “LXRβ/LXRE Eff” value (LXRβ [1])?
A: 93%

Q: And the EC50 (LXRα [2])?
A: 580 nM

Q: What about the “LXRα/LXRE Eff” value (LXRα [2]) of the same compound?
A: 91%

Q: What about the Ki (LXRβ [3]) of the same compound?
A: 230 nM

Q: And the Ki (LXRα [4])?
A: 360 nM

Q: Which results are given for `N#Cc1c(C(F)(F)F)cc(-c2ccccc2)n(N=C2CCCCC2)c1=O` [1-Cyclohexylideneamino-2-oxo-6-phenyl-4-trifluoromethyl-1,2-dihydropyridine-3-carbonitrile]?
A: EC50 (LXRβ [1]): 4300 nM; LXRβ/LXRE Eff (LXRβ [1]): 72%; EC50 (LXRα [2]): 3400 nM; LXRα/LXRE Eff (LXRα [2]): 90%; Ki (LXRβ [3]): 450 nM; Ki (LXRα [4]): 690 nM

Q: For `COc1cccc(-c2cc(C(F)(F)F)c(C#N)c(=O)n2Cc2ccccc2)c1` [1-Benzyl-6-(3-methoxy-phenyl)-2-oxo-4-trifluoromethyl-1,2-dihydro-pyridine-3-carbonitrile], which EC50 (LXRβ [1]) is on record?
A: 840 nM

Q: And the “LXRβ/LXRE Eff” value (LXRβ [1])?
A: 79%

Q: What about the EC50 (LXRα [2]) of the same compound?
A: 1200 nM

Q: What about the “LXRα/LXRE Eff” value (LXRα [2]) of the same compound?
A: 78%

Q: What about the Ki (LXRβ [3]) of the same compound?
A: 120 nM

Q: What about the Ki (LXRα [4]) of the same compound?
A: 510 nM

Q: For `N#Cc1c(C(F)(F)F)cc(-c2cccs2)n(Cc2ccccc2)c1=O` [1-Benzyl-2-oxo-6-thiophen-2-yl-4-trifluoromethyl-1,2-dihydro-pyridine-3-carbonitrile], which EC50 (LXRβ [1]) is on record?
A: 1800 nM

Q: What about the “LXRβ/LXRE Eff” value (LXRβ [1]) of the same compound?
A: 82%

Q: What about the EC50 (LXRα [2]) of the same compound?
A: 1600 nM

Q: And the “LXRα/LXRE Eff” value (LXRα [2])?
A: 56%

Q: What about the Ki (LXRβ [3]) of the same compound?
A: 580 nM

Q: And the Ki (LXRα [4])?
A: 1400 nM
